Experimental data reported in ChEMBL document CHEMBL5316297, “Mechanistic Insight of Synthesized 1,4-Dihydropyridines as an Antidiabetic Sword against Reactive Oxygen Species” (J Med Chem, 2023).
The source made the active and inactive calls. The calls are words filed in the database; no cut-off is given here.

Key:
INS1 [1] = test: Induction of apoptosis in rat INS1 cells assessed as total apoptotic cells at 1 uM incubated for 36 hrs by Annexin V-FITC/ propidium iodide staining based flow cytometry analysis (reference value: 0.53%); format: functional
Mus musculus [2] = test: Antidiabetic activity against high fat diet-STZ-induced diabetic Swiss albino mouse model assessed as reduction in blood glucose level at 0.2 mmol/Kg/day, po administered for 14 days; format: functional; settings: time 14 day
Mus musculus [3] = test: Antidiabetic activity against high fat diet-STZ-induced diabetic Swiss albino mouse model assessed as reduction in blood glucose level at 0.2 mmol/Kg/day, po administered for 14 days relative to control; format: functional; set-up: scale not given: the % may be the effect or the level left; settings: time 14 day
Mus musculus [4] = test: Antidiabetic activity against high fat diet-STZ-induced diabetic Swiss albino mouse model assessed as reduction in blood glucose level at 0.2 mmol/Kg/day, po administered for 14 days relative to glimepiride; format: functional; set-up: scale not given: the % may be the effect or the level left; settings: time 14 day
Mus musculus [5] = test: Antidiabetic activity against high fat diet-STZ-induced diabetic Swiss albino mouse model assessed as serum insulin level at 0.2 mmol/Kg/day, po administered for 14 days by ELISA method (reference value: 16.37 +/- 0.62 uU/ml); format: functional; settings: time 14 day
Mus musculus [6] = test: Antidiabetic activity against high fat diet-STZ-induced diabetic Swiss albino mouse model assessed as insulin resistance by measuring serum IL6 level at 0.2 mmol/Kg/day, po administered for 14 days by ELISA method (reference value: 39.30+/-4.14 pg/ml); format: functional; settings: time 14 day
Mus musculus [7] = test: Antioxidant activity against high fat diet-STZ-induced diabetic Swiss albino mouse model assessed as serum SOD level at 0.2 mmol/Kg/day, po administered for 14 days (reference value: 273.01+/- 6.23 U/ml); format: functional; settings: time 14 day
Mus musculus [8] = test: Antioxidant activity against high fat diet-STZ-induced diabetic Swiss albino mouse model assessed as serum catalase level at 0.2 mmol/Kg/day, po administered for 14 days (reference value: 378.22+/- 14.45 U/ml); format: functional; settings: time 14 day
Mus musculus [9] = test: Antioxidant activity against high fat diet-STZ-induced diabetic Swiss albino mouse model assessed as serum MDA level at 0.2 mmol/Kg/day, po administered for 14 days (reference value: 8.70+/- 0.09 nmol/ml); format: functional; settings: time 14 day
INS1 [10] = test: Induction of apoptosis in rat INS1 cells assessed as late apoptotic cells at 1 uM incubated for 36 hrs by Annexin V-FITC/ propidium iodide staining based flow cytometry analysis (reference value: 0.19%); format: functional
Alpha glucosidase = Alpha glucosidase (Homo sapiens, UniProt O43451+P10253+P14410+Q2M2H8); test: Inhibition of alpha glucosidase (unknown origin) measured after 60 mins; format: protein assay
Dipeptidyl peptidase 4 [11] = target: T1, Dipeptidyl peptidase 4 (Homo sapiens, UniProt P27487); test: Inhibition of DPP-4 (unknown origin) incubated for 30 mins in presence of substrate by fluorescence based analysis
Target sequence in this assay (P27487 whole entry): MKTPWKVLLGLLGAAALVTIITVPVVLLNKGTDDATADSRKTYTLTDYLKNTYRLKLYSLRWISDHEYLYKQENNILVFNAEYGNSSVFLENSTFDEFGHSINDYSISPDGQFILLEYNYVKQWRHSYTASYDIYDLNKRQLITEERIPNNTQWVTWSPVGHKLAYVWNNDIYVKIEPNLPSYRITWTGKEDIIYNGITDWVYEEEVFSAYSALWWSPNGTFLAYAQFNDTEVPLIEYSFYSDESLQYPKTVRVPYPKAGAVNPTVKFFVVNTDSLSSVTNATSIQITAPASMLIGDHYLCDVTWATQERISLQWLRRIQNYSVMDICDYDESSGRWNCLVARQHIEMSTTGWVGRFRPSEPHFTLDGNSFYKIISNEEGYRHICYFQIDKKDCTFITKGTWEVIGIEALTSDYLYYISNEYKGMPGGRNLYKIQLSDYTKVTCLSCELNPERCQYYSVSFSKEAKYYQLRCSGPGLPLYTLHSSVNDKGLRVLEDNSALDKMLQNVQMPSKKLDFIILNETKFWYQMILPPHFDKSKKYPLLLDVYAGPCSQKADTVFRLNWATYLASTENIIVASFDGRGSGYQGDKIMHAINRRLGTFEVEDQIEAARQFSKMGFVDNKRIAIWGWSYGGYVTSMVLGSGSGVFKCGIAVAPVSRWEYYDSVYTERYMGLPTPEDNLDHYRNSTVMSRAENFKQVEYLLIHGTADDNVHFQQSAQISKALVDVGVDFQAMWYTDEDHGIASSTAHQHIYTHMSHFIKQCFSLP

[12] = target: T2, Sodium/glucose cotransporter 2 (Homo sapiens, UniProt P31639); test: Inhibition of human SGLT2 by liquid scintillation counter analysis
T2 sequence (P31639 whole entry): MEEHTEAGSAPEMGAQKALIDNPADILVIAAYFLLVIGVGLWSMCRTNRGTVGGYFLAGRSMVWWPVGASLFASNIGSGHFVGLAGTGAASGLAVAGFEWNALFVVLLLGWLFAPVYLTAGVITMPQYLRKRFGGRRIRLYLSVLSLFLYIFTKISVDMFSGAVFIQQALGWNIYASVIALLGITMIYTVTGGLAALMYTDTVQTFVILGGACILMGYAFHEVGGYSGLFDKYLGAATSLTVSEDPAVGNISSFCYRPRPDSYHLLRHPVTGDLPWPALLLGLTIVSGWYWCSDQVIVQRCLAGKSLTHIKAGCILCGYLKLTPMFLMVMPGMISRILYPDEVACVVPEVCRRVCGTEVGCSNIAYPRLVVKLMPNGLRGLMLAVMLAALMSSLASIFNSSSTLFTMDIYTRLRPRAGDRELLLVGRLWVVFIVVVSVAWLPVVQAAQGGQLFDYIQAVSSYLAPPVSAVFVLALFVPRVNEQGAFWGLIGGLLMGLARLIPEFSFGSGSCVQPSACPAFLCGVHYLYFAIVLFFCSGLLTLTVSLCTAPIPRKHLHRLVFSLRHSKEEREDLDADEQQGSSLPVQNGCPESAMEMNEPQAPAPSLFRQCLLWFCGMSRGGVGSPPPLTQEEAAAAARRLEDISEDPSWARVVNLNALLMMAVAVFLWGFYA

[13] = target: Alpha amylase (Homo sapiens) (UniProt P0DUB6); test: Inhibition of alpha amylase (unknown origin) measured after 20 to 25 mins relative to quercetin; settings: time 20-25 min
Sequence of Alpha amylase (Homo sapiens) (P0DUB6 whole entry, looked up): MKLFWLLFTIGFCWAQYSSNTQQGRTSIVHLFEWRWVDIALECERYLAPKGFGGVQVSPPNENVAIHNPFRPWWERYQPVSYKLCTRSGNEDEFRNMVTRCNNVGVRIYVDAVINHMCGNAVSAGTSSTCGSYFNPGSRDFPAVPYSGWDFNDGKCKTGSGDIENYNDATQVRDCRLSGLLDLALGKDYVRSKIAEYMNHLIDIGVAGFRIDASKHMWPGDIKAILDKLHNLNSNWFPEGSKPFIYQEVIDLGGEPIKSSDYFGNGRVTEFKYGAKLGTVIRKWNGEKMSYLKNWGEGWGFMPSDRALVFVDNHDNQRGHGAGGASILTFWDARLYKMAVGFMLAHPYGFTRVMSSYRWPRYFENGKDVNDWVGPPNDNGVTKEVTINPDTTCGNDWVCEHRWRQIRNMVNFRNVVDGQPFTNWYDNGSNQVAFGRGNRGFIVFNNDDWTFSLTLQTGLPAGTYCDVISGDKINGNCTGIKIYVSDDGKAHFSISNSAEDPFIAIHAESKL

Dipeptidyl peptidase 4 [14] = target: T1, Dipeptidyl peptidase 4; test: Inhibition of DPP-4 (unknown origin) incubated for 30 mins in presence of substrate by fluorescence based analysis relative to sitagliptin
Target sequence in this assay (P27487 whole entry, looked up): as the sequence (P27487 whole entry) above

[15] = Cmax in Swiss albino mouse plasma at 0.2 mmol/Kg, po measured after 24 hrs by HPLC analysis; format: ADME, organism-based; set-up: time 24 hrs, dose 0.2 mmol/Kg, route po
[16] = Half life in Swiss albino mouse plasma at 0.2 mmol/Kg, po measured after 24 hrs by HPLC analysis; format: ADME, organism-based
[17] = target: voltage dependent L-type calcium channel (Rattus norvegicus, UniProt P22002+P27732+Q02485); test: Inhibition of voltage dependent L-type calcium channel in rat A7R5 cells
[18] = Cytotoxicity against human MCF-10F cells assessed as cell growth inhibition; format: toxicity, cell-based
[19] = Cytotoxicity against human MCF-10F cells assessed as cell growth inhibition at 10 uM relative to control; format: toxicity, cell-based; settings: read-out: GI
[20] = Cytotoxicity against human MRC5 cells assessed as cell growth inhibition; format: toxicity, cell-based
[21] = Cytotoxicity against human MRC5 cells assessed as cell growth inhibition at 10 uM relative to control; format: toxicity, cell-based; settings: read-out: GI
[22] = Cytotoxicity against human THLE-2 cells assessed as cell growth inhibition; format: toxicity, cell-based
[23] = Cytotoxicity against human BJ cells assessed as cell growth inhibition; format: toxicity, cell-based
[24] = Cytotoxicity against human BJ cells assessed as cell growth inhibition at 10 uM relative to control; format: toxicity, cell-based; settings: read-out: GI
[25] = Cytotoxicity against human ECT1/E6E7 cells assessed as cell growth inhibition; format: toxicity, cell-based
[26] = Cytotoxicity against human ECT1/E6E7 cells assessed as cell growth inhibition at 10 uM relative to control; format: toxicity, cell-based; settings: read-out: GI
[27] = Cytotoxicity against HEK293 cells assessed as cell growth inhibition; format: toxicity, cell-based; settings: human
[28] = Cytotoxicity against HEK293 cells assessed as cell growth inhibition at 10 uM relative to control; format: toxicity, cell-based; settings: human, read-out: GI
[29] = Cytotoxicity against human WPE1-NA22 cells assessed as cell growth inhibition; format: toxicity, cell-based
[30] = Cytotoxicity against human WPE1-NA22 cells assessed as cell growth inhibition at 10 uM relative to control; format: toxicity, cell-based; settings: read-out: GI
Mus musculus [31] = test: Antidiabetic activity against high fat diet-STZ-induced diabetic Swiss albino mouse model assessed as increase in appearance of insulin immunopositive areas in pancreatic sections at 0.2 mmol/kg/day, po administered for 14 days by […] based analysis; format: functional, organism-based; settings: time 14.0 day
[32] = Acute toxicity in Swiss albino mouse assessed as effect on motor alterations up to 2000 mg/kg, po administered for 14 days; format: organism-based; settings: in vivo, 336 h, time 14 day
[33] = Acute toxicity in Swiss albino mouse assessed as toxic symptoms up to 2000 mg/kg, po administered for 14 days; format: organism-based; settings: in vivo, 336 h, time 14 day

CCOC(=O)C1=C(C)NC(C)=C(C(=O)OCC)C1c1cccc2c1OCO2
Activity (INS1 [1]): 0.42%
Activity (Mus musculus [2]): 80.6 mg/dL
Activity (Mus musculus [3]): 72.97%
Activity (Mus musculus [4]): 218%
Activity (Mus musculus [5]): 16.31 uU/ml
Activity (Mus musculus [6]): 96.07 pg/mL
Activity (Mus musculus [7]): 236.14 U/ml
Activity (Mus musculus [8]): 271.11 U/ml
Activity (Mus musculus [9]): 8.61 nmol/mL
Activity (INS1 [10]): 0.15%
IC50 (Alpha glucosidase): 4.48 µM
IC50 (Dipeptidyl peptidase 4 [11]): 280 µM
IC50 [12]: 411 µM
inhibition [13]: 47%
inhibition (Dipeptidyl peptidase 4 [14]): < 1%
Cmax [15]: 10.1 µM
half-life [16]: 1.9 h
IC50 [17]: 12.6 µM
GI50 [18]: 171 µM
inhibition at 10 µM [19]: 28.7%
GI50 [20]: 61.8 µM
inhibition at 10 µM [21]: 18.6%
GI50 [22]: 67.8 µM
GI50 [23]: 15.2 µM
inhibition at 10 µM [24]: 34.5%
GI50 [25]: 3.74 µM
inhibition at 10 µM [26]: 18.9%
GI50 [27]: 19.7 µM
inhibition at 10 µM [28]: 41.3%
GI50 [29]: 24.9 µM
inhibition at 10 µM [30]: 26.4%
Activity (Mus musculus [31]): Active
Activity [32]: Non-Toxic
Activity [33]: Non-Toxic
